Data published in paper PMC8766756, “Insights on Cancer Cell Inhibition, Subcellular Activities, and Kinase Profile of Phenylacetamides Pending 1H-Imidazol-5-One Variants” (Frontiers in Pharmacology, 2022).
Entries after “also recorded” stand apart in the source; their conditions may differ. Where two headings read alike, the source gives them in different places.

How the values were obtained:
GSK-3α/β (S21/S9) = assay: Human Phospho-Kinase Array in HL60 cells; assay type: cell-based
Excerpt: (§1) We also measured changes in kinase activities of some selected Ser/Thr kinases using the Human Phospho-Kinase Array® kit (R&D Systems) which encompasses phosphoprotein-specific capture antibodies spotted at a certain location (in duplicates) on a nitrocellulose membrane. The signal intensities, detected by a sandwich immunoassay, are proportional to the amount of each phosphokinase in the cell lysate (Figure 8).
(§2) FIGURE 8 Phosphokinase proteome profile of KIM-161 in HL60 cell line. (A) Cells lysates were prepared after 10 h treatment with KIM-161 and applied to the membranes prespotted with the different antibodies. […] The height of each bar represents the average intensity of certain protein signals in treated cells/untreated × 100. Therefore, the dotted line represents the control percentage (100%).
(§3) The phosphorylation profile of 48 kinases was performed using the Proteome Profiler Human Phospho-Kinase Array an antibody array kit, by R&D Systems (Minneapolis, MN, USA). Total protein was extracted from the cell lysates treated with 365 nM KIM-161 for 10 h using the lysis buffer provided in the kit and quantified using the Bio-Rad DC Protein Assay kit (USA). The nitrocellulose membrane set (A&B), pre-spotted with the capture antibodies, was first blocked with 1 ml of Array buffer 1 at RT for 1 h in an 8-well multi-dish on a rocking platform shaker. Approximately 600 µg of protein concentrate (<334 µL) was diluted in the Array buffer 1 to a final volume of 2 ml. 1 ml of the protein sample was added onto the membrane set and incubated overnight at 4°C on a rocking platform shaker. Subsequently, membranes were washed with 15 ml of 1× wash buffer thrice for 5 min at RT, and the excess buffer was completely drained. The membranes A&B were then incubated with appropriate detection antibody cocktails A&B that were reconstituted using the 1× Array buffer 2/3 for 2 h at RT. After the incubation was complete, the membranes were washed with 15 ml of 1× wash buffer thrice for 5 min at RT, and the excess buffer was completely drained. Streptavidin-HRP (1:2000), diluted in 1× Array buffer 2/3, was applied onto the membranes and incubated for 30 min at RT on a rocking platform shaker. The membranes were washed thrice, and Chemi Reagent 1&2 were applied in equal volumes for detection on C-DiGit®Blot Scanner (LI-COR Odyssey Imaging Systems, Lincoln, Nebraska, USA) using the Image Studio 5.0 software.

CREB = assay: Human Phospho-Kinase Array in HL60 cells; assay type: cell-based
Excerpt: as §1, §2, §3

[1] = tested on: HCT116 colon cancer cell line; assay: MTT antiproliferative assay; assay type: cell-based; details: Homo sapiens, HCT-116
Protocol: The compounds were screened for their anticancer activities against a variety of cancer cell lines. The cytotoxic effect of the compounds was evaluated using the sulforhodamine B (SRB) cytotoxicity assay for breast cancer line (MCF7) and prostate cancer cell line (PC3) ([Vichai and Kirtikara, 2006]; [Rana et al., 2021]) and 3-(4,5-dimethylthiazol-2-yl)-2,5-diphenyl-2H-tetrazolium bromide (MTT) assay for the colon cancer (HCT116) cell lines ([El-Huneidi et al., 2020]). The CellTiter-Blue® cell viability assay was performed on the various leukemia cell lines, HL60, NB4, and KG1a cells ([Akter et al., 2019]). The IC50 values are illustrated in Table 1.
MCF7 (breast), PC3 (prostate), and HCT116 (colon) cancer cell lines were obtained from ATCC, Manassas, VA, USA. Cells were grown in Roswell Park Memorial Institute-1640 (RPMI-1640) medium (Thermo Fisher Scientific, Inc., Waltham, MA, USA), supplemented with 10% heat inactivated fetal bovine serum (FBS), 50 units/mL of penicillin, and […] of streptomycin and maintained at 37°C in a humidified atmosphere containing 5% CO2. The cells were maintained as “monolayer culture” by serial subculturing.
The test compounds were evaluated for antiproliferative activity using the MTT viability assay against the HCT116 cell line. The cells were seeded in triplicate in 96-well plates at a density of 10 × 10^3 cells/mL in a total volume of 200 µL per well. 0.1% of DMSO was used as a vehicle control. Each well was treated with 2 µL of test compound, which had been preprepared as stock solutions in ethanol to furnish the concentration range of the study, 0.1–50 μM, and re-incubated for a further 72 h at 37°C in a humidified atmosphere containing 5% CO2. The culture medium was then removed, and the cells were washed with 100 µL of PBS, and 100 µL of MTT was added, to reach a final concentration of 1 mg/ml of MTT. The cells were incubated for 3 h in darkness at 37°C. After removal of MTT solution, solubilization was initiated through the addition of […] of DMSO, and the cells were maintained at room temperature in darkness for 20 min to ensure thorough color diffusion before reading the absorbance with a microplate reader at 570 nm. The results were expressed as percentage viability relative to vehicle control (100%). The dose–response curves were plotted, and the IC50 values (concentration of drug resulting in 50% reduction in cell survival) were obtained using the commercial software package Prism (GraphPad® Software, Inc., La Jolla, CA, USA). All the experiments were repeated in at least three independent experiments.

[2] = Stability in human liver microsomes; assay type: in vitro ADME; details: 37°C, t1/2
Protocol: The clearance of KIM-161 in MLM or HLM was determined at 37°C as previously described ([Yang et al., 2007]). Both MLM and HLM were obtained from Merck KGaA (Darmstadt, Germany), Cat. No. M9441 (MLM) and M0317 (HLM). The assays were conducted in triplicate in 96-well deep polypropylene plates. KIM-161 was incubated with pooled liver microsomes from male CD-1 mice (Life Technologies, Grand Island, NY), tetrasodium NADPH and magnesium chloride for 60 min at 37°C with gentle shaking. At five time points, the reaction mixture aliquots were transferred to 96-shallow well stop plates on ice containing acetonitrile with 0.1 µM propafenone. […] The standard curves for the test compound were generated using five concentrations in triplicate that were processed as above but with zero incubation time. The stop plates were centrifuged at 2000g for 10 min, and then, the supernatant aliquots were transferred to a Waters Aquity® UPLC 700 µL 96-well sample plate with cap mat (Waters, Milford, MA). The amount of the compound remaining in the supernatant was quantified by LC/MS/MS using a Waters Xevo TQ MS (electrospray positive mode) coupled to a Waters Aquity® UPLC (BEH column, C18). Propafenone was used as the internal standard. GraphPad® Prism v.5.04 was used for nonlinear fitting of time course data to generate t1/2 values.

[3] = GSK-3α/β spot, HL60 cells, 10 h (KIM-161 365 nM)
[4] = CREB spot, HL60 cells, 10 h (KIM-161 365 nM)

COc1ccc(/C=C2\N=C(C)N(c3ccc(CC(=O)NCc4ccccc4)cc3)C2=O)cc1 [Compound 4c, (Z)-N-Benzyl-2-(4-(4-(4-methoxybenzylidene)-2-methyl-5-oxo-4,5-dihydro-1H-imidazol-1-yl)phenyl)acetamide]
Normalized to HK (GSK-3α/β (S21/S9); [3]): 0.0000
Normalized x10K (GSK-3α/β (S21/S9); [3]): 0.00
Signal (GSK-3α/β (S21/S9); [3]): 0.00
change of GSK-3α/β phosphokinase signal (GSK-3α/β (S21/S9); HL60, 365 nM, 10 h, vs untreated, listed as KIM-161): strongly suppresses; also recorded: strong downregulation
activity at 0.365 µM (GSK-3α/β (S21/S9); Homo sapiens, HL-60, GSK-3α/β spot, HL60 cells, 10 h (KIM-161 365 nM), untreated = 100, read-out: % Ctrl): 0%
Normalized to HK (CREB; [4]): 0.0405
Normalized x10K (CREB; [4]): 405.44
Signal (CREB; [4]): 142.45
reduction of CREB activity (CREB; HL60, 365 nM, 10 h, vs untreated): 36.7%
activity at 0.365 µM (CREB; Homo sapiens, HL-60, CREB spot, HL60 cells, 10 h (KIM-161 365 nM), untreated = 100, read-out: % Ctrl): 63.3%
IC50 ([1]; HCT116, MTT, 72 h, read-out: IC50 ± SEM HCT116): 294 nM
IC50 ([1]; HCT116 colon cancer, abstract, read-out: cytotoxic IC50 HCT116): 294 nM
HLM stability [2]: 22.9 min
